Measured values published in patent publication US20080191164A1, “Method For the Treatment of a Material Other Than the Human Body” (priority 2005, published 2008).

How the values were obtained:
[1] = Volatility / aptitude for drying; type: physicochemical; parameters: key: 0 = low; + = moderate; ++ = high
Rinsability with water = type: physicochemical; parameters: key: 0 = poor; + = good; ++ = excellent
[2] = Flammability / flashpoint of the compositions; type: physicochemical; parameters: key to FLA = flammability: − = no; +/° C. = yes/flashpoint
[3] = background statement; cited from earlier work
[4] = compulsory labelings; cited from earlier work
man = details: cited from earlier work; for toxicity for man: compulsory labelings T, Xn, R40, R45 and/or R65
[5] = Biodegradability (general properties table)
[6] = advantages hitherto described; cited from earlier work
[7] = test system: aquatic organisms, such as bacteria, freshwater algae, daphnia and freshwater fish; test: Toxicity for aquatic organisms
[8] = Rate of evaporation with respect to n-butyl acetate; type: physicochemical; details: 20° C.
[9] = Ready biodegradability, OECD No. 301 A (DOC Die-away Test); details: at 28 days
[10] = Risks of harmfulness, protection of the aquatic environment/bioaccumulation; parameters: key: − = harmfulness demonstrated; + = slight risk; ++ = very slight risks
Source text: For each of Compositions A to E, the characteristics of odor (“ODOR”), of stability at alkaline pH, i.e. at a pH of 9 (“STAB.”) and of risks of harmfulness in terms of protection of the aquatic environment/bioaccumulation (“BIO.”) are taken up in the table below according to the following notation: […]

Row | Structure (SMILES) | VOL = volatility/aptitude for drying [1] | RIN = rinsability with water (Rinsability with water) | FLA = flammability [2] | FLA: flashpoint [2] [°C] | flashpoint [3] [°C] | toxicity for the environment [4] | toxicity for man (man) | BIO = biodegradability [5] | miscibility with water [6] | irritant nature and toxicity to man (man; advantages hitherto described) | toxicity for aquatic organisms [7] | rate of evaporation with respect to n-butyl acetate [8] | ready biodegradability (OECD No. 301 A) [9] [%] | BIO. (risks of harmfulness, aquatic environment/bioaccumulation) [10]
1 | CCOC(=O)C(C)O (stereo not shown) [Composition 4, ethyl lactate] | + | + | + | 46 | 46 |  |  |  |  |  |  |  |  | 
2 | C=C(C)[C@H]1CC=C(C)CC1 [d-limonene] |  |  |  |  | 48 |  |  |  |  |  |  |  |  | 
3 | ClC=C(Cl)Cl [Composition 1, trichloroethylene] | ++ | 0 | − |  |  | compulsory labelings R51/R53 | a certain toxicity for man | − |  |  |  |  |  | 
4 | CO[C@H]1CO[C@H]2[C@@H]1OC[C@H]2OC [Composition 5, dimethyl isosorbide] | 0 | ++ | + | 120 |  |  |  | + | in all proportions | absence of irritant nature and of toxicity to man | absence of toxicity | less than 0.005 | ~25 | ++
5 | ClCCl [Composition 2, dichloromethane] | ++ | 0 | − |  |  | compulsory labelings R51/R53 | a certain toxicity for man | − |  |  |  |  |  | 
6 | C=C(C)[C@H]1CC=C(C)CC1 [Composition 3, dipentene] | ++ | 0 | + | 48 |  |  |  | + |  |  |  |  |  | 
